Experiments:
Experiment in all cases: kinobeads assay with mass spectrometry detection of kinases (kinase selectivity profile)
Format in all cases: binding
kinases (kinome) [1] = biological target: T1, kinases (kinome) (Homo sapiens, UniProt P06213); settings: INSR (TK), IPI00025803
T1 construct: determined in kinobeads assays with mass spectrometry detection of kinases as described previously; endogenous in cells; host or cells: cell lysate
Text: (§1) The protein kinase complement of the human genome (the kinome) was described previously (Manning et al., 2002. Science 298(5600):1912-1934). Sequence accession numbers are defined by the International Protein Index (IPI) (Kersey et al., 2004. Proteomics 4(7):1985-1988).

kinases (kinome) [2] = biological target: T2, kinases (kinome) (Homo sapiens, UniProt P51812); settings: RSK2 (AGC), IPI00020898
T2 construct: determined in kinobeads assays with mass spectrometry detection of kinases as described previously; endogenous in cells; host or cells: cell lysate
Text: as §1

kinases (kinome) [3] = biological target: T3, kinases (kinome) (Homo sapiens, UniProt Q9H2G2); settings: SLK (STE), IPI00022827
T3 construct: determined in kinobeads assays with mass spectrometry detection of kinases as described previously; endogenous in cells; host or cells: cell lysate
Text: as §1

kinases (kinome) [4] = biological target: T4, kinases (kinome) (Homo sapiens, UniProt Q9BZL6); settings: PKD2 (CAMK), IPI00009334
T4 construct: determined in kinobeads assays with mass spectrometry detection of kinases as described previously; endogenous in cells; host or cells: cell lysate
Text: as §1

kinases (kinome) [5] = biological target: T5, kinases (kinome) (Homo sapiens, UniProt Q9Y6M4); settings: CK1g3 (CK1), IPI00218437
T5 construct: determined in kinobeads assays with mass spectrometry detection of kinases as described previously; endogenous in cells; host or cells: cell lysate
Text: as §1

kinases (kinome) [6] = biological target: T6, kinases (kinome) (Homo sapiens, UniProt P29320); settings: EphA3 (TK), IPI00298105
T6 construct: determined in kinobeads assays with mass spectrometry detection of kinases as described previously; endogenous in cells; host or cells: cell lysate
T6 sequence (P29320 21-983): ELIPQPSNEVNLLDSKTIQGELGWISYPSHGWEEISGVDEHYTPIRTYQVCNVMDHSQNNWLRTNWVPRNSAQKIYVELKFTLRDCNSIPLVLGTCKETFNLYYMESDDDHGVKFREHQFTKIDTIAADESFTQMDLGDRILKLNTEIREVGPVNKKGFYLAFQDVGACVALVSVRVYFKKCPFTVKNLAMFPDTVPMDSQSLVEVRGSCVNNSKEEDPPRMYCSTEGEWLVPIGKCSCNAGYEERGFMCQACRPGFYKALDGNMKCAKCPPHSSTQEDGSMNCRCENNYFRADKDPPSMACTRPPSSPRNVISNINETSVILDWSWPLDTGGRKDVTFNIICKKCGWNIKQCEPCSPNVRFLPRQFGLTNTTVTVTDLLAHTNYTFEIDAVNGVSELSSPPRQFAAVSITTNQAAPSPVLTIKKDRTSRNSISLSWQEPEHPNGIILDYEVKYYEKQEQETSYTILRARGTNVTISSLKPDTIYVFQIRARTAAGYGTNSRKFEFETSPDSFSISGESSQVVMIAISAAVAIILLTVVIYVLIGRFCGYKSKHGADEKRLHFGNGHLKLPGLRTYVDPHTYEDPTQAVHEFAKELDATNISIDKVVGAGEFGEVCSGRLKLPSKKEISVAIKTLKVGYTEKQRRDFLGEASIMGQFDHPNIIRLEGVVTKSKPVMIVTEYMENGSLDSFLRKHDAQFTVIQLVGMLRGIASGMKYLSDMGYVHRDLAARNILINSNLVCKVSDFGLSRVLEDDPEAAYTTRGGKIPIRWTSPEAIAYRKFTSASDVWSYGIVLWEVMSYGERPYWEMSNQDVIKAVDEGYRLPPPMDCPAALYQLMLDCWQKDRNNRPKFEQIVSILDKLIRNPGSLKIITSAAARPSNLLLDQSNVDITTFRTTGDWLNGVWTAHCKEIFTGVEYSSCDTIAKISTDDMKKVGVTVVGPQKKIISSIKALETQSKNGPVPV
Text: as §1

kinases (kinome) [7] = biological target: T7, kinases (kinome) (Homo sapiens, UniProt Q13627); settings: DYRK1A (CMGC), IPI00014344
T7 construct: determined in kinobeads assays with mass spectrometry detection of kinases as described previously; endogenous in cells; host or cells: cell lysate
Text: as §1

kinases (kinome) [8] = biological target: T8, kinases (kinome) (Homo sapiens, UniProt Q13164); settings: Erk5 (CMGC), IPI00910923
T8 construct: determined in kinobeads assays with mass spectrometry detection of kinases as described previously; endogenous in cells; host or cells: cell lysate
Text: as §1

kinases (kinome) [9] = biological target: T9, kinases (kinome) (Homo sapiens, UniProt P15735); settings: PHKg2 (CAMK), IPI00012891
T9 construct: determined in kinobeads assays with mass spectrometry detection of kinases as described previously; endogenous in cells; host or cells: cell lysate
Text: as §1

kinases (kinome) [10] = biological target: T10, kinases (kinome) (Homo sapiens, UniProt Q9UQM7); settings: CaMK2a (CAMK), IPI00550056
T10 construct: determined in kinobeads assays with mass spectrometry detection of kinases as described previously; endogenous in cells; host or cells: cell lysate
Text: as §1

kinases (kinome) [11] = biological target: T11, kinases (kinome) (Homo sapiens, UniProt Q13873); settings: BMPR2 (TKL), IPI00783156
T11 construct: determined in kinobeads assays with mass spectrometry detection of kinases as described previously; endogenous in cells; host or cells: cell lysate
Text: as §1

kinases (kinome) [12] = biological target: T12, kinases (kinome) (Homo sapiens, UniProt Q86TW2); settings: ADCK1 (Atypical), IPI00787836
T12 construct: determined in kinobeads assays with mass spectrometry detection of kinases as described previously; endogenous in cells; host or cells: cell lysate
Text: as §1

kinases (kinome) [13] = biological target: T13, kinases (kinome) (Homo sapiens, UniProt Q99759); settings: MAP3K3 (STE), IPI00181703
T13 construct: determined in kinobeads assays with mass spectrometry detection of kinases as described previously; endogenous in cells; host or cells: cell lysate
Text: as §1

kinases (kinome) [14] = biological target: T14, kinases (kinome) (Homo sapiens, UniProt O75676); settings: MSK2 (AGC), IPI00022536
T14 construct: determined in kinobeads assays with mass spectrometry detection of kinases as described previously; endogenous in cells; host or cells: cell lysate
Text: as §1

kinases (kinome) [15] = biological target: T15, kinases (kinome) (Homo sapiens, UniProt O60674); settings: JAK2 (TK), IPI00031016
T15 construct: determined in kinobeads assays with mass spectrometry detection of kinases as described previously; endogenous in cells; host or cells: cell lysate
Text: as §1

kinases (kinome) [16] = biological target: T16, kinases (kinome) (Homo sapiens, UniProt Q8N752); settings: CK1a2 (CK1), IPI00167096
T16 construct: determined in kinobeads assays with mass spectrometry detection of kinases as described previously; endogenous in cells; host or cells: cell lysate
Text: as §1

kinases (kinome) [17] = biological target: T17, kinases (kinome) (Homo sapiens, UniProt P48426); settings: PIP5K2A (Lipid Kinase), IPI00009688
T17 construct: determined in kinobeads assays with mass spectrometry detection of kinases as described previously; endogenous in cells; host or cells: cell lysate
Text: as §1

kinases (kinome) [18] = biological target: T18, kinases (kinome) (Homo sapiens, UniProt Q16513); settings: PKN2 (AGC), IPI00002804
T18 construct: determined in kinobeads assays with mass spectrometry detection of kinases as described previously; endogenous in cells; host or cells: cell lysate
Text: as §1

kinases (kinome) [19] = biological target: T19, kinases (kinome) (Homo sapiens, UniProt P78368); settings: CK1g2 (CK1), IPI00297767
T19 construct: determined in kinobeads assays with mass spectrometry detection of kinases as described previously; endogenous in cells; host or cells: cell lysate
Text: as §1

Measured: IC50

T14 sequence (O75676 whole entry): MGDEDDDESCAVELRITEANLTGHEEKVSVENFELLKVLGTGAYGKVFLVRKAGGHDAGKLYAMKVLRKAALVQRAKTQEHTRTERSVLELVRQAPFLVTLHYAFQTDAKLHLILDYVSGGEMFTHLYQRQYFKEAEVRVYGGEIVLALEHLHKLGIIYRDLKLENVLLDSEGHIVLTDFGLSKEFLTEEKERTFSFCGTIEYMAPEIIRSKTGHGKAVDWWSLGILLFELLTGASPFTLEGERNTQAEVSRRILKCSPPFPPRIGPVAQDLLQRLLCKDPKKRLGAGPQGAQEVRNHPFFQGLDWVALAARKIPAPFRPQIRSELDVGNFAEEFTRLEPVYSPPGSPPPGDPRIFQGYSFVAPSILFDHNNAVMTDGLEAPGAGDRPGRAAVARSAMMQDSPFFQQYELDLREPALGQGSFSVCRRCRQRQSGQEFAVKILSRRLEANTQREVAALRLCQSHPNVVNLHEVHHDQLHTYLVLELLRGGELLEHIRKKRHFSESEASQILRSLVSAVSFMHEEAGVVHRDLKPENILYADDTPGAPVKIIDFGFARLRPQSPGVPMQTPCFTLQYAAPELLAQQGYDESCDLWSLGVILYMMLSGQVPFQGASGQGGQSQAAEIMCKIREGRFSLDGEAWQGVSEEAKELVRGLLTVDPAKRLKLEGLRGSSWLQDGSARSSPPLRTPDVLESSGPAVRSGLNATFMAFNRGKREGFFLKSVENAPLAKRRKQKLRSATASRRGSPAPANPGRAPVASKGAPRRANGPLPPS
T5 sequence (Q9Y6M4 whole entry): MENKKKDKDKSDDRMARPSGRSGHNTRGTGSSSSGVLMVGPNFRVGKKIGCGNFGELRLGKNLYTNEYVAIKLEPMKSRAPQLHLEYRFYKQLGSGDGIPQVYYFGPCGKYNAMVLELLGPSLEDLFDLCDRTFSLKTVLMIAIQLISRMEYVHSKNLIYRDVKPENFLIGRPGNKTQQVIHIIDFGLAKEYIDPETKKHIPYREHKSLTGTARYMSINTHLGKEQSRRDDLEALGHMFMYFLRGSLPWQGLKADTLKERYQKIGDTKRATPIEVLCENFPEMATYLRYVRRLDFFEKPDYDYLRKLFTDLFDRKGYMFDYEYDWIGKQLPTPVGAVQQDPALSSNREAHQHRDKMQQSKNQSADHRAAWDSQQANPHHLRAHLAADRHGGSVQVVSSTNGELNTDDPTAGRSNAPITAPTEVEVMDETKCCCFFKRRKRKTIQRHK
T18 sequence (Q16513 whole entry): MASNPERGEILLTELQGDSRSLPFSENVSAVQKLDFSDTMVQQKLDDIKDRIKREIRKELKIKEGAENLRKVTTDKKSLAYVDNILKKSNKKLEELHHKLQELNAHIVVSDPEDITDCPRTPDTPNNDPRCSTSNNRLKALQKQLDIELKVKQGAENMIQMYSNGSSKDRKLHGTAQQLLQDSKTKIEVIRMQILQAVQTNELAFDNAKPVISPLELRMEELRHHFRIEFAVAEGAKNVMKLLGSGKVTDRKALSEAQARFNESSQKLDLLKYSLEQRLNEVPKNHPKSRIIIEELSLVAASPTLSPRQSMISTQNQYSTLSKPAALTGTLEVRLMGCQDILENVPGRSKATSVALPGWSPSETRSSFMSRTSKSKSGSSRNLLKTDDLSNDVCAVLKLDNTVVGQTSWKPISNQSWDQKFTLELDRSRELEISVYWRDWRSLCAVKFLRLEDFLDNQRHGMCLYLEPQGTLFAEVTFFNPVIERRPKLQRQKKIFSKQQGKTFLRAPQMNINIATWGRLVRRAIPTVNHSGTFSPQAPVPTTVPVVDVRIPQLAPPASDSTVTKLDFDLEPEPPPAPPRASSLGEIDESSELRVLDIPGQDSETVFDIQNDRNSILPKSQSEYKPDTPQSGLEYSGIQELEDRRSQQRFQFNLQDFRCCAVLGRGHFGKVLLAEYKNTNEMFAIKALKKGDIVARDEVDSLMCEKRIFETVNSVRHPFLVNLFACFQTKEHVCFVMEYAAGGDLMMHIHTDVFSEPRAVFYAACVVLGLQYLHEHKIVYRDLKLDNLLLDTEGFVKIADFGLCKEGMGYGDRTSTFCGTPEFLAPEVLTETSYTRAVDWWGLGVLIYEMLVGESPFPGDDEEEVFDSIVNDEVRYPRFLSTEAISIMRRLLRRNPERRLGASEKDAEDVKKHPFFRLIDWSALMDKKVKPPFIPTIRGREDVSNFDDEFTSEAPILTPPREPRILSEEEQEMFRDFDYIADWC
T1 sequence (P06213 28-1382): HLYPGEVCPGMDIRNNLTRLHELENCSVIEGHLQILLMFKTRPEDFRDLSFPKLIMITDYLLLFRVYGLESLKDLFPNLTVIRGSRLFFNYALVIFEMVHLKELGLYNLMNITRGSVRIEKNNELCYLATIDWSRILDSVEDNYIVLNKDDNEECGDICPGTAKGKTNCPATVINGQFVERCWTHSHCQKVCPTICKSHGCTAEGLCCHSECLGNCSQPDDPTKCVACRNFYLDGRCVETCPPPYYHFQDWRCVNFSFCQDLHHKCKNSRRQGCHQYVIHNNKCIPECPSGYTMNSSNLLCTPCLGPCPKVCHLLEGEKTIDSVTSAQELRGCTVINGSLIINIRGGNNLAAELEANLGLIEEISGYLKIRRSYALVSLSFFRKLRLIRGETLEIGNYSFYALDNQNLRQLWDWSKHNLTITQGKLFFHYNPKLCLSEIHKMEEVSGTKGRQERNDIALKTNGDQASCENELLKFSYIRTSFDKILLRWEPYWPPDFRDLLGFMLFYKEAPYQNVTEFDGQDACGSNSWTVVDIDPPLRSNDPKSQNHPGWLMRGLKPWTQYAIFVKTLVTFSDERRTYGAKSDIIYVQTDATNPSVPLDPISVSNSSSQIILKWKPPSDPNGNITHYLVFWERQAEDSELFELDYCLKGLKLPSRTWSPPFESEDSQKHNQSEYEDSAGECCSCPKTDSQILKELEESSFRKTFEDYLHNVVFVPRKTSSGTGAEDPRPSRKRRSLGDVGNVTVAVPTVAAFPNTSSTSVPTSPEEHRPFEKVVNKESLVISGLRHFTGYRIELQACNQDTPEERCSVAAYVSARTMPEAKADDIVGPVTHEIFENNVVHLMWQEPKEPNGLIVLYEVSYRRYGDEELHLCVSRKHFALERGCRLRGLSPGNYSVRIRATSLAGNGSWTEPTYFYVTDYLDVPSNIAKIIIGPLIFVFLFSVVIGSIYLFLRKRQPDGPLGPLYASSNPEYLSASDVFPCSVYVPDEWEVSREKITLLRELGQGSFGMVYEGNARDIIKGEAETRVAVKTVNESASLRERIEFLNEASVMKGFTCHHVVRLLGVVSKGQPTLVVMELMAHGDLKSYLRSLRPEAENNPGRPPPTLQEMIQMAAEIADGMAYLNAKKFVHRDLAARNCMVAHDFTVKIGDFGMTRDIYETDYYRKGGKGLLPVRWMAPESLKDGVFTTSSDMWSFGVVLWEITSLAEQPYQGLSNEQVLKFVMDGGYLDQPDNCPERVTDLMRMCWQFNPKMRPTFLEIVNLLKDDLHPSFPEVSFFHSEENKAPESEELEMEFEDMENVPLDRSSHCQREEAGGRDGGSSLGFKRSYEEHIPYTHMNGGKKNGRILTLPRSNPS
T13 sequence (Q99759 whole entry): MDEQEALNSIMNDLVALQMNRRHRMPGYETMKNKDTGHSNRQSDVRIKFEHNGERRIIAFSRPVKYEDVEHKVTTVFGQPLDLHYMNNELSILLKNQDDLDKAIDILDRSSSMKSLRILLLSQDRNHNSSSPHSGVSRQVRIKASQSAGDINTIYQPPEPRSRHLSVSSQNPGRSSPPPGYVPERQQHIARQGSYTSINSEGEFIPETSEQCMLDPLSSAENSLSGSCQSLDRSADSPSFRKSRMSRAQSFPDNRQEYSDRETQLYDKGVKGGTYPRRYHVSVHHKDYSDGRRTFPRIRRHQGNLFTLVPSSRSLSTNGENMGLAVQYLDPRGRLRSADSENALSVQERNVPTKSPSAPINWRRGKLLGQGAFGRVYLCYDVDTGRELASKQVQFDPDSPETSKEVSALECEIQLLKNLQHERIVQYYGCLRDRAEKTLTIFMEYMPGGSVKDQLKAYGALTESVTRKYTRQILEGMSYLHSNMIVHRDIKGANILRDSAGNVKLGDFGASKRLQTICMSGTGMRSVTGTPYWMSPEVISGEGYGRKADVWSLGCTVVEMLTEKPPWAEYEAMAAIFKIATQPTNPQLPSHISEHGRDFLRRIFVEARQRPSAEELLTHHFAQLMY
T4 sequence (Q9BZL6 whole entry): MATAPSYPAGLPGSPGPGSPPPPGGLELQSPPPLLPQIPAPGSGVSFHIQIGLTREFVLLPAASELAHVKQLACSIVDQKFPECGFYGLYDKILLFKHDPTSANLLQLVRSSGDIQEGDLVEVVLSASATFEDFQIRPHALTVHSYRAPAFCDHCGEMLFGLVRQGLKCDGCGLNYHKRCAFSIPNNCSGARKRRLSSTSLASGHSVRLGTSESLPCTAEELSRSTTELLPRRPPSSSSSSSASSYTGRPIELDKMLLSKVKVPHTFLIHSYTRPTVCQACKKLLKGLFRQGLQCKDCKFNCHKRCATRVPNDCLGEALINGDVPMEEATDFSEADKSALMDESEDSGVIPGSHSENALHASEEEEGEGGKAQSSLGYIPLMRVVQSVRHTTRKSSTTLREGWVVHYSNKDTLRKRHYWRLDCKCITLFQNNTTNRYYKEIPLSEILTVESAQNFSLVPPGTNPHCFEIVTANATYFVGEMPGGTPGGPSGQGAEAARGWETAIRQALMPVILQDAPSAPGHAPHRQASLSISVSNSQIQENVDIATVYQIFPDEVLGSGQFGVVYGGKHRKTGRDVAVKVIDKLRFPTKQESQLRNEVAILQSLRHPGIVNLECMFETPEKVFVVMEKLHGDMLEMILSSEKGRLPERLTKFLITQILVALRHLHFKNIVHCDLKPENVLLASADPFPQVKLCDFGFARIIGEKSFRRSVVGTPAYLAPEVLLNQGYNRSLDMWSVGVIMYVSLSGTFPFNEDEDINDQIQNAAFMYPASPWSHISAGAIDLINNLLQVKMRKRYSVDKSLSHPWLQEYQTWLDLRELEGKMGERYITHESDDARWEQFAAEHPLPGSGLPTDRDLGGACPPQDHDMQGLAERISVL

C[C@H]1COCCN1c1nc(-c2ccc(NC(=O)NC3CC3)cc2)cc(-c2ccccc2S(C)(=O)=O)n1 [Example 4, (S)-1-cyclopropyl-3-(4-(2-(3-methylmorpholino)-6-(2-(methylsulfonyl)phenyl)pyrimidin-4-yl)phenyl)urea]
> 10 µM: kinases (kinome) [1] | kinases (kinome) [2] | kinases (kinome) [3] | kinases (kinome) [4] | kinases (kinome) [5] | kinases (kinome) [6] | kinases (kinome) [7] | kinases (kinome) [8] | kinases (kinome) [9]

CCNC(=O)Nc1ccc(-c2cc(-c3ccccc3C#N)nc(N3CCOC[C@@H]3C)n2)cc1 [Example 8, (S)-1-(4-(6-(2-cyanophenyl)-2-(3-methylmorpholino)pyrimidin-4-yl)phenyl)-3-ethylurea]
> 10 µM: kinases (kinome) [10] | kinases (kinome) [5] | kinases (kinome) [6]

C[C@H]1COCCN1c1nc(-c2ccc(NC(=O)NC3CC3)cc2)cc(-c2cc(F)ccc2S(C)(=O)=O)n1 [Example 40, (S)-1-cyclopropyl-3-(4-(6-(5-fluoro-2-(methylsulfonyl)phenyl)-2-(3-methylmorpholino)pyrimidin-4-yl)phenyl)urea]
not listed: kinases (kinome) [3] | kinases (kinome) [5] | kinases (kinome) [7] | kinases (kinome) [8] | kinases (kinome) [10] | kinases (kinome) [19]
> 10 µM: all other assays above

C[C@H]1COCCN1c1cc(-c2ccccn2)nc(-c2ccc(NC(=O)NCCO)cc2)n1 [Example 43, (S)-1-(2-hydroxyethyl)-3-(4-(4-(3-methylmorpholino)-6-(pyridin-2-yl)pyrimidin-2-yl)phenyl)urea]
> 10 µM: kinases (kinome) [14] | kinases (kinome) [6] | kinases (kinome) [18]

C[C@H]1COCCN1c1nc(-c2ccc(NC(=O)NC3CC3)cc2)cc(-c2cccnc2S(C)(=O)=O)n1 [Example 46, (S)-1-cyclopropyl-3-(4-(2-(3-methylmorpholino)-6-(2-(methylsulfonyl)pyridin-3-yl)pyrimidin-4-yl)phenyl)urea]
> 10 µM: kinases (kinome) [19] | kinases (kinome) [14] | kinases (kinome) [6] | kinases (kinome) [15]

C[C@H]1COCCN1c1nc(-c2ccc(NC(=O)N[C@H]3CCC[C@@H]3O)cc2)cc(-c2cc(F)ccc2S(C)(=O)=O)n1 [Example 76, 1-(4-(6-(5-fluoro-2-(methylsulfonyl)phenyl)-2-((S)-3-methylmorpholino)pyrimidin-4-yl)phenyl)-3-((1S,2S)-2-hydroxycyclopentyl)urea]
> 10 µM: kinases (kinome) [13]

Reference: patent US9249129B2, “Morpholino substituted urea derivatives as mTOR inhibitors” (CELLZOME LIMITED, priority 2010, dated 2016)
